Where two headings read alike, the source gives them in different places.
How the values were obtained:
[1] = tested on: HCV RNA replicon in cell line ET (luc-ubi-neo/ET), human Huh7 hepatoma; test: Luciferase Assay (Example 35), replicon-derived luciferase activity; format: cell-based; conditions: Hepatitis C virus, Huh-7; assay described in Example 35
Method: The compounds were assayed to evaluate the antiviral activity and cytotoxicity of compounds using replicon-derived luciferase activity. This assay used the cell line ET (luc-ubi-neo/ET), which is a human Huh7 hepatoma cell line that contains an HCV RNA replicon with a stable luciferase (Luc) reporter and cell culture-adaptive mutations. The ET cell line was grown in a 5% CO2 incubator at 37° C. in Dulbecco's modified essential media (DMEM) supplemented with 2 mM L-glutamine, nonessential amino acids, 100 U of penicillin/ml, 100 μg of streptomycin/mL, and 10% fetal bovine serum. G418 (Geneticin; Invitrogen) was added at a final concentration of 400 ug//mL.
All cell culture reagents were obtained from Invitrogen (Carlsbad). Cells were trypsinized (1% trypsin:EDTA) and plated out at 5×10^3 cells/well in white 96-well assay plates (Costar) dedicated to cell number (cytotoxicity) or antiviral activity assessments. Test compounds were added at six 3-fold concentrations each and the assay was run in DMEM, 5% FBS, 1% pen-strep, 1% glutamine, 1% non essential amino acid. Human interferon alpha-2b (PBL Biolabs, New Brunswick, N.J.) was included in each run as a positive control compound. Cells were processed 72 hr post test compound addition when the cells were still subconfluent. Antiviral activity was measured by analyzing replicon-derived luciferase activity using the Steady-Glo Luciferase Assay System (Promega, Madison, Wis.) according to manufacturer's instruction. The number of cells in each well was determined by Cell Titer Blue Assay (Promega). Compound profile was derived by calculating applicable EC50 (effective concentration inhibiting virus replication by 50%), EC90 (effective concentration inhibiting virus replication by 90%), IC50 (concentration decreasing cell viability by 50%) and SI50 (selective index: […]) values.

[2] = biological target: T1, R155K mutant of the HCV NS3/4A 1b protease enzyme (Hepatitis C virus genotype 1b, UniProt P26663, R1181K); test: HCV Protease FRET Assay (IC50_APP), R155K mutant; format: biochemical; conditions: apparent IC50, R155K mutant; read-out: IC50_APP, HCV R155K
T1 construct: 10× stocks of NS3/4A protease enzyme from Bioenza (Mountain View, Calif.); purchased Bioenza (Mountain View, Calif.)

[3] = biological target: T2, C159S mutant of the HCV NS3/4A 1b protease enzyme (Hepatitis C virus genotype 1b, UniProt P26663, C1185S); test: HCV Protease FRET Assay (IC50_APP), C159S mutant; format: biochemical; conditions: apparent IC50, C159S mutant
T2 construct: 10× stocks of NS3/4A protease enzyme from Bioenza (Mountain View, Calif.); purchased Bioenza (Mountain View, Calif.)
Method: HCV Protease FRET Assay for WT and Mutated NS3/4A 1b Enzymes (IC50—APP).
The following protocol was used to generate “apparent” IC50 (IC50—APP) values as depicted in Table 6, below. […] 5 μL of each enzyme were added to Corning (#3575) 384-well, black, microtiter plates (Corning, N.Y.) after spotting a 0.5 μL volume of 50% DMSO and serially diluted compounds prepared in 50% DMSO. Protease reactions were immediately started after enzyme addition with the addition of 45 μL of the FRET substrate and monitored for 60-90 minutes at λex485/λem520 in a Synergy^4 plate reader from BioTek (Winooski, Vt.). At the conclusion of each assay, progress curves from each well were examined for linear reaction kinetics and fit statistics (R^2, 95% confidence intervals, absolute sum of squares).
(§1) The compound numbers correspond to the compound numbers in Table 3. […] ;

[4] = biological target: T3, D168A mutant of the HCV NS3/4A 1b protease enzyme (Hepatitis C virus genotype 1b, UniProt P26663, D1194A); test: HCV Protease FRET Assay (IC50_APP), D168A mutant; format: biochemical; conditions: apparent IC50, D168A mutant; read-out: IC50_APP, HCV D168A
T3 construct: 10× stocks of NS3/4A protease enzyme from Bioenza (Mountain View, Calif.); purchased Bioenza (Mountain View, Calif.)

[5] = biological target: T4, A156T mutant of the HCV NS3/4A 1b protease enzyme (Hepatitis C virus genotype 1b, UniProt P26663, A1182T); test: HCV Protease FRET Assay (IC50_APP), A156T mutant; format: biochemical; conditions: apparent IC50, A156T mutant; read-out: IC50_APP, HCV A156T
T4 construct: 10× stocks of NS3/4A protease enzyme from Bioenza (Mountain View, Calif.); purchased Bioenza (Mountain View, Calif.)

[6] = biological target: T5, wild type HCV NS3/4A 1b protease enzyme (Hepatitis C virus genotype 1b, UniProt P26663); test: HCV Protease FRET Assay (IC50_APP), wild type; format: biochemical; conditions: read-out: IC50_APP, WT; apparent IC50, wild type NS3/4A 1b
T5 construct: 10× stocks of NS3/4A protease enzyme from Bioenza (Mountain View, Calif.); purchased Bioenza (Mountain View, Calif.)

[7] = tested on: HCV RNA replicon in cell line ET (luc-ubi-neo/ET), human Huh7 hepatoma; test: Method A: HCV RNA replicon antiviral assay (luciferase, ET cell line); format: cell-based, Hepatitis C virus; conditions: Hepatitis C virus, Huh-7
In short: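 Six 3-fold dilutions of each drug were tested on subconfluent luc-ubi-neo/ET Huh7 replicon cells (5×10^3/well) for 72 hr at 37 °C. EC50 and EC90 came from luciferase read-out, IC50 from CytoTox-1 cell number, and […]; interferon alpha-2b was run each time as control.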

[8] = biological target: T4, A156T mutant of the HCV NS3/4A 1b protease enzyme; test: HCV Protease FRET Assay (IC50), A156T mutant; format: biochemical; conditions: read-out: Inhibition, HCV A156T; A156T enzyme, FRET assay
Method: HCV Protease FRET Assay for Wild Type and Mutated NS3/4A 1b Enzymes (IC50)
The protocol is a modified FRET-based assay (v—02) from In Vitro Resistance Studies of HCV Serine Protease Inhibitors, 2004, JBC, vol. 279, No. 17, pp 17508-17514.
10× stocks of NS3/4A protease enzyme from Bioenza (Mountain View, Calif.) and 1.13× 5-FAM/QXL™ 520 FRET peptide substrate from Anaspec (San Jose, Calif.) were prepared in 50 mM HEPES, pH 7.8, 100 mM NaCl, 5 mM DTT and 20% glycerol. 5 μL of each enzyme were pre-incubated in a Corning (#3573) 384-well, black, non-treated microtiter plate (Corning, N.Y.) for 30 min at 25° C. with a 0.5 μL volume of 50% DMSO and serially diluted compounds prepared in 50% DMSO. Protease reactions were started with the addition of 45 μL of the FRET substrate and monitored for 120 minutes at λex487/λem514 through Quad^4 monochromoters in a Synergy^4 plate reader from BioTek (Winooski, Vt.). At the conclusion of each assay, progress curves from each well were examined for linear reaction kinetics and fit statistics (R^2, absolute sum of squares). Initial velocity (0 minutes to 30+ minutes) from each reaction was determined from the slope of a plot of relative fluorescence units vs time (minutes) and then plotted against inhibitor concentration to estimate IC50 from log[Inhibitor] vs Response, Variable Slope model in GraphPad Prism from GraphPad Software (San Diego, Calif.).
as §1

[9] = tested on: cell line ET (luc-ubi-neo/ET), human Huh7 hepatoma cell line; test: Method A: cytotoxicity in ET replicon cells (CytoTox-1); format: cell-based; conditions: concentration decreasing cell viability by 50%, 72 hr
In short: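 ET cells (Huh7 carrying luciferase HCV replicon), 5×10^3 cells/well, given six 3-fold compound concentrations in DMEM with 5% FBS. After 72 hr, while subconfluent, cell number was measured with CytoTox-1 reagent. Interferon alpha-2b served as positive control.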

[10] = biological target: T3, D168A mutant of the HCV NS3/4A 1b protease enzyme; test: HCV Protease FRET Assay (IC50), D168A mutant; format: biochemical; conditions: read-out: Inhibition, HCV D168A; D168A enzyme, FRET assay
[11] = biological target: T5, wild type HCV NS3/4A 1b protease enzyme; test: biochemical; format: biochemical; conditions: read-out: Inhibition, WT; WT enzyme, FRET assay
[12] = Replicon, assay of Example 22, 72 hr, read-out: Inhibition, Replicon
[13] = assay described in Example 22, read-out: Replicon (IC50)

Compound	EC50 [1] [µM]	IC50 [2] [µM]	IC50 [3] [µM]	IC50 [4] [µM]	IC50 [5] [µM]	IC50 [6] [µM]	IC90 ([7]; assay described in Example 22) [µM]	IC50 [7, 12] [µM]	IC50 [7, 13] [µM]	IC50 [8] [µM]	Inhibition, Cytotoxicity [9]	IC50 [10] [µM]	IC50 [11] [µM]
C=CC(=O)N[C@H](CC(C)C)C(=O)N1C[C@H](Oc2nccc3cc(OC)ccc23)C[C@H]1C(=O)N[C@]1(C(=O)NS(=O)(=O)C2CC2)C[C@H]1C=C [Compound I-105]	0.01 to 0.1	0.01 to 0.1	0.1 to 1	0.1 to 1	< 0.01	< 0.01	–	–	–	–	–	–	–
C=CC1CC1(NC(=O)C1CC(n2nnc(-c3ccc(OC)cc3)n2)CN1C(=O)C(CCC(=O)C=C(C)C)NC(=O)OC(C)(C)C)C(=O)NS(=O)(=O)C1CC1 (centres unmarked) [Compound I-107]	0.1 to 1	1 to 10	0.01 to 0.1	1 to 10	–	< 0.01	–	–	–	–	–	–	–
C=CC(=O)NCC(NC(=O)OC(C)(C)C)C(=O)N1CC(n2nnc(-c3ccc(OC)cc3)n2)CC1C(=O)NC1(C(=O)NS(=O)(=O)C2CC2)CC1C=C (centres unmarked) [Compound I-108]	0.1 to 1	1 to 10	0.1 to 1	1 to 10	–	< 0.01	–	–	–	–	–	–	–
C=CC(=O)N[C@H](C)C(=O)N1C[C@H](Oc2cc(-c3ccccc3)nc3cc(OC)ccc23)C[C@H]1C(=O)N[C@]1(C(=O)NS(=O)(=O)c2ccccc2)C[C@H]1C=C [Compound I-46, (2S,4R)-1-((R)-2-acrylamidopropanoyl)-4-(7-methoxy-2-phenylquinolin-4-yloxy)-N-((1R,2S)-1-(phenylsulfonylcarbamoyl)-2-vinylcyclopropyl)pyrrolidine-2-carboxamide]	–	–	–	0.1 to 1	0.01 to 0.1	< 0.01	< 0.01	< 0.01	< 0.01	< 0.01	C (IC50>100 nM and ≦1000 nM)	< 0.01	< 0.01
C=CC(=O)N[C@H](Cc1ccccc1)C(=O)N1C[C@H](Oc2nccc3cc(OC)ccc23)C[C@H]1C(=O)N[C@]1(C(=O)NS(=O)(=O)C2CC2)C[C@H]1C=C [Compound I-106]	0.01 to 0.1	0.01 to 0.1	0.1 to 1	0.1 to 1	< 0.01	< 0.01	–	–	–	–	–	–	–
C=CC(=O)N(C)C[C@H](NC(=O)OC(C)(C)C)C(=O)N1C[C@H](Oc2cc(-c3ccccc3)nc3cc(OC)ccc23)C[C@H]1C(=O)N[C@]1(C(=O)NS(=O)(=O)c2ccccc2)C[C@H]1C=C [Compound I-28, tert-butyl-(S)-1-((2S,4R)-4-(7-methoxy-2-phenylquinolin-4-yloxy)-2-((1R,2S)-1-(phenylsulfonylcarbamoyl)-2-vinylcyclopropylcarbamoyl)pyrrolidin-1-yl)-3-(N-methylacrylamido)-1-oxopropan-2-ylcarbamate]	–	–	–	1 to 10	1 to 10	< 0.01	0.1 to 1	< 0.01	0.01 to 0.1	0.01 to 0.1	D (IC50>1000 nM and <10,000 nM)	0.1 to 1	< 0.01
C=C[C@@H]1C[C@]1(NC(=O)[C@@H]1C[C@@H](Oc2nc3ccccc3nc2-c2cccs2)CN1C(=O)[C@H](CCC(=O)C=C(C)C)NC(=O)OC(C)(C)C)C(=O)NS(=O)(=O)C1CC1 [Compound I-110]	0.01 to 0.1	0.1 to 1	0.01 to 0.1	1 to 10	–	< 0.01	–	–	–	–	–	–	–
C=CC(=O)NCC(=O)N1C[C@H](Oc2cc(-c3ccccc3)nc3cc(OC)ccc23)C[C@H]1C(=O)N[C@]1(C(=O)NS(=O)(=O)C2CC2)C[C@H]1C=C [Compound I-39, (2S,4R)-1-(2-acrylamidoacetyl)-N-((1R,2S)-1-(cyclopropylsulfonylcarbamoyl)-2-vinylcyclopropyl)-4-(7-methoxy-2-phenylquinolin-4-yloxy)pyrrolidine-2-carboxamide]	–	–	–	0.1 to 1	0.01 to 0.1	< 0.01	0.1 to 1	0.01 to 0.1	0.01 to 0.1	< 0.01	C (IC50>100 nM and ≦1000 nM)	< 0.01	< 0.01
C=CC(=O)NC[C@H](NC(=O)OC(C)(C)C)C(=O)N1C[C@H](Oc2nc3ccccc3nc2-c2cccs2)C[C@H]1C(=O)N[C@]1(C(=O)NS(=O)(=O)C2CC2)C[C@H]1C=C [Compound I-109]	0.1 to 1	0.1 to 1	0.1 to 1	1 to 10	–	< 0.01	–	–	–	–	–	–	–

Reference: patent US8309685B2 (Celgene Avilomics Research, Inc., priority 2007, dated 2012)
